Data from PMC10174618, “Monoterpenoid aryl hydrocarbon receptor allosteric antagonists protect against ultraviolet skin damage in female mice” (Nature Communications, 2023).

Assays:
Test in all cases: biochemical
Set-up in all cases: KINOMEscan scanMAX active site-directed competition binding assay, percent of control, 468 kinases
Conditions in all cases: competition binding, percent of control
[1] = biological target: T1, ERK4 (Homo sapiens, UniProt P31152)
T1 construct: gene MAPK4
Method: (§1) The KINOMEscan^TM screening platform (scanMAX assay) employs a proprietary active site-directed competition binding assay that quantitatively measures the interactions between test compounds (here 100 μM S-carvone) and 468 human protein kinases. The assay was performed at Eurofins DiscoverX Corp. (Fremont, CA, USA). Blocking protein kinase C (PKC) activity was reported to inhibit the transcription of CYP1A1 but to exert no effect on the nuclear translocation of AhR[26], which was also the case here with carvones. Therefore, we tested whether carvones inhibit PKC catalytic activity. […] We also evaluated the interaction between 100 μM S-carvone and 468 human protein kinases, employing KINOMEscan^TM (scanMAX assay), a proprietary active site-directed competition binding assay. The minimal inhibitory threshold used by the screening platform KINOMEscan^TM is 35% of the control kinase activity. Among 468 kinases tested, 467 were above the 35% cutoff. Tyrosine kinase 2 TK2 (JH2 domain pseudokinase) activity was inhibited to 27% of the control activity, but this kinase is not relevant to the regulation of transcription activity (Fig. 5B; Figure S9). Overall, we excluded the possibility that the effects of carvones on AhR signaling are caused indirectly by the inhibition of the human kinome, particularly PKC.

[2] = biological target: FGFR4 (Homo sapiens, UniProt P22455)
Sequence of FGFR4 (P22455 whole entry): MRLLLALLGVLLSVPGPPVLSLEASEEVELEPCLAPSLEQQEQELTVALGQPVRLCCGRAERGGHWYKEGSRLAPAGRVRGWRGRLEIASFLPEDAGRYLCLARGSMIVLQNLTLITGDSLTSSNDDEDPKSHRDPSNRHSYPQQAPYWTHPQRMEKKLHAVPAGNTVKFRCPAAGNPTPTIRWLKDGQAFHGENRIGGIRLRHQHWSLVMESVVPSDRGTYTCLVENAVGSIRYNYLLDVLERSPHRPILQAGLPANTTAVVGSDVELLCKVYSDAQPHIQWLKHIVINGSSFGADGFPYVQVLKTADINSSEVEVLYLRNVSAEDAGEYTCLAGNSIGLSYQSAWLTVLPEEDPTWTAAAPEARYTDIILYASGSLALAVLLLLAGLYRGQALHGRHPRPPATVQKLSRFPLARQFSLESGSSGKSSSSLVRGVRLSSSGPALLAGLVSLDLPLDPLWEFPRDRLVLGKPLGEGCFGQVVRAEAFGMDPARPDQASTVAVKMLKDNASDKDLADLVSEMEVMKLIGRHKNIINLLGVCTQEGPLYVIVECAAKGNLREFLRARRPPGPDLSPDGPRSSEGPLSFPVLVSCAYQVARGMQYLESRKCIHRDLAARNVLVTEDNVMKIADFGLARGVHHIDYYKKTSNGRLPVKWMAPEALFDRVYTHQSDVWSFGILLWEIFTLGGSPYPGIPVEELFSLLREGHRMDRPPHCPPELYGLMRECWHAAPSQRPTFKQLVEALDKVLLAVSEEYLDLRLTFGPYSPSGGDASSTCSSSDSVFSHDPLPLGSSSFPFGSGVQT
Method: as §1

[3] = biological target: EGFR(L747-E749del, A750P) (Homo sapiens, UniProt P00533, A750P/DEL747-749)
Method: as §1

[4] = biological target: MYO3A (Homo sapiens, UniProt Q8NEV4)
Method: as §1

[5] = biological target: MYLK (Homo sapiens, UniProt Q15746)
Method: as §1

[6] = biological target: PIK3CA(H1047Y) (Homo sapiens, UniProt P42336, H1047Y)
Sequence of PIK3CA(H1047Y) (P42336 whole entry H1047Y): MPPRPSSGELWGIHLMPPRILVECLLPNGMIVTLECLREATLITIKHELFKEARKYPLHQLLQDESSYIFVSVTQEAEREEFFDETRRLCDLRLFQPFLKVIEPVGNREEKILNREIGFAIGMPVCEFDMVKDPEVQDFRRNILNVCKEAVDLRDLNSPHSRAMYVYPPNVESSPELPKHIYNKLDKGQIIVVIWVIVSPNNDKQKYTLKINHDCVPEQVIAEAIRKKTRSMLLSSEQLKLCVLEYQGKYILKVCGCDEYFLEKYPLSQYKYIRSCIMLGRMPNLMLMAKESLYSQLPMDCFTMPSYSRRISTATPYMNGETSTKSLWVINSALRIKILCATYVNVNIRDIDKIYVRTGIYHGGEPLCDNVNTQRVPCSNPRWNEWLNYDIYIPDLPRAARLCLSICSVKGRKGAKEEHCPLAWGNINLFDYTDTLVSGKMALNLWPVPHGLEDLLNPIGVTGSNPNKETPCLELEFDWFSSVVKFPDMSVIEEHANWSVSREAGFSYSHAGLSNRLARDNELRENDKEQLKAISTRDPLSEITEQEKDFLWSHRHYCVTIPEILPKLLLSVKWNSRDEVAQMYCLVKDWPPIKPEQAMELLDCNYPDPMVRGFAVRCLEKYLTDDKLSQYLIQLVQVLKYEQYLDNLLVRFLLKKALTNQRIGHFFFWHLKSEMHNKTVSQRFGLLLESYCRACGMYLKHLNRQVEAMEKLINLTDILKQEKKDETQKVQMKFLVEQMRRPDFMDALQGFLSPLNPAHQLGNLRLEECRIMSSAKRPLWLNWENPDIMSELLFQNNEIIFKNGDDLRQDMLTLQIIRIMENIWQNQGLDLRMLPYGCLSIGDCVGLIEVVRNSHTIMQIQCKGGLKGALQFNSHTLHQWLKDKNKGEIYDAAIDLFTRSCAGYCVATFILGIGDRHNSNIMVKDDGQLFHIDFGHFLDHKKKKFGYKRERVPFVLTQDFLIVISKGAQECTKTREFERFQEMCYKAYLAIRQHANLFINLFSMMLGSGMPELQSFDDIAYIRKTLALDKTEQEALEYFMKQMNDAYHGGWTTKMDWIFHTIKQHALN
Method: as §1

[7] = biological target: PKN2 (Homo sapiens, UniProt Q16513)
Method: as §1

[8] = biological target: DDR2 (Homo sapiens, UniProt Q16832)
Method: as §1

[9] = biological target: MTOR (Homo sapiens, UniProt P42345)
Method: as §1

[10] = biological target: PIK3CA(H1047L) (Homo sapiens, UniProt P42336, H1047L)
Sequence of PIK3CA(H1047L) (P42336 whole entry H1047L): as the sequence (P42336 whole entry H1047Y) above, with Y1047L counted along it
Method: as §1

[11] = biological target: HUNK (Homo sapiens, UniProt P57058)
Method: as §1

[12] = biological target: T2, OSR1 (Homo sapiens, UniProt O95747)
T2 construct: gene OXSR1
T2 sequence (O95747 whole entry): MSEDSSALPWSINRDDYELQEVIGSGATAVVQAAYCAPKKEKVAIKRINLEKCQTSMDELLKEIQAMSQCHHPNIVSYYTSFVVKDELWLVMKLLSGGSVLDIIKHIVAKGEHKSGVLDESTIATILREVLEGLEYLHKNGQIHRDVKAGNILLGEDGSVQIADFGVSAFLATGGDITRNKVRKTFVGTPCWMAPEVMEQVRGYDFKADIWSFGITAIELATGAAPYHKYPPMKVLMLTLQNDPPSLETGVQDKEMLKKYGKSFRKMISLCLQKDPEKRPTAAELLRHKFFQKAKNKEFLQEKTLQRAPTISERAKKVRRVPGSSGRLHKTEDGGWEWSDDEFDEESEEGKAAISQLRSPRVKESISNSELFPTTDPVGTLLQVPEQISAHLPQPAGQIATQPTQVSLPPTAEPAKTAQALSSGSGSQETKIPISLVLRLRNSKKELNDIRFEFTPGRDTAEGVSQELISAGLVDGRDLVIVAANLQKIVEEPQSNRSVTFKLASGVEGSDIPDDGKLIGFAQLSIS
Method: as §1

[13] = biological target: PRKCE (Homo sapiens, UniProt Q02156)
Method: as §1

[14] = biological target: CSNK1G2 (Homo sapiens, UniProt P78368)
Method: as §1

[15] = biological target: T3, RPS6KA5(Kin.Dom.1-N-terminal) (Homo sapiens, UniProt O75582)
T3 construct: Kin.Dom.1-N-terminal
T3 sequence (O75582 whole entry): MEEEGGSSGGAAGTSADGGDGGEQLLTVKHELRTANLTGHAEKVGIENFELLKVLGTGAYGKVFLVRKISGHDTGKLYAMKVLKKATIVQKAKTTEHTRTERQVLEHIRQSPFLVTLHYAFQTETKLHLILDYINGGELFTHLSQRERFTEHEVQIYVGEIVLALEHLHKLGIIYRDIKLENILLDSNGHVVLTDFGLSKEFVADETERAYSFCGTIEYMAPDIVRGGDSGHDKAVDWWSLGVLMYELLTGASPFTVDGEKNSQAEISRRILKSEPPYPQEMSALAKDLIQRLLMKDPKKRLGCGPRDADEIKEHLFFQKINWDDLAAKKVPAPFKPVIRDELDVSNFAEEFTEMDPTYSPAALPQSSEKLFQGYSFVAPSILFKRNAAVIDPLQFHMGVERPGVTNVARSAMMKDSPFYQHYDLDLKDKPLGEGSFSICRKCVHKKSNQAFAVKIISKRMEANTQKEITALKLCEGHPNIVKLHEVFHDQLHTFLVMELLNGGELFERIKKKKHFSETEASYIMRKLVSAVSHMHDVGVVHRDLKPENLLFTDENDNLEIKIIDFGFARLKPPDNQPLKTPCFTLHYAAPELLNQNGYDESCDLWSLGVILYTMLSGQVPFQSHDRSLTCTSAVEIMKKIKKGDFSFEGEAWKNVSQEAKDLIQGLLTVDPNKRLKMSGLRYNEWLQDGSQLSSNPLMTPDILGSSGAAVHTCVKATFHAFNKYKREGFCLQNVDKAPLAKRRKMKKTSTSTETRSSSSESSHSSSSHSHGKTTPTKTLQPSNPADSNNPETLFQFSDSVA
Method: as §1

[16] = biological target: AKT1 (Homo sapiens, UniProt P31749)
Method: as §1

[17] = biological target: EPHA2 (Homo sapiens, UniProt P29317)
Method: as §1

[18] = biological target: MARK3 (Homo sapiens, UniProt P27448)
Sequence of MARK3 (P27448 whole entry): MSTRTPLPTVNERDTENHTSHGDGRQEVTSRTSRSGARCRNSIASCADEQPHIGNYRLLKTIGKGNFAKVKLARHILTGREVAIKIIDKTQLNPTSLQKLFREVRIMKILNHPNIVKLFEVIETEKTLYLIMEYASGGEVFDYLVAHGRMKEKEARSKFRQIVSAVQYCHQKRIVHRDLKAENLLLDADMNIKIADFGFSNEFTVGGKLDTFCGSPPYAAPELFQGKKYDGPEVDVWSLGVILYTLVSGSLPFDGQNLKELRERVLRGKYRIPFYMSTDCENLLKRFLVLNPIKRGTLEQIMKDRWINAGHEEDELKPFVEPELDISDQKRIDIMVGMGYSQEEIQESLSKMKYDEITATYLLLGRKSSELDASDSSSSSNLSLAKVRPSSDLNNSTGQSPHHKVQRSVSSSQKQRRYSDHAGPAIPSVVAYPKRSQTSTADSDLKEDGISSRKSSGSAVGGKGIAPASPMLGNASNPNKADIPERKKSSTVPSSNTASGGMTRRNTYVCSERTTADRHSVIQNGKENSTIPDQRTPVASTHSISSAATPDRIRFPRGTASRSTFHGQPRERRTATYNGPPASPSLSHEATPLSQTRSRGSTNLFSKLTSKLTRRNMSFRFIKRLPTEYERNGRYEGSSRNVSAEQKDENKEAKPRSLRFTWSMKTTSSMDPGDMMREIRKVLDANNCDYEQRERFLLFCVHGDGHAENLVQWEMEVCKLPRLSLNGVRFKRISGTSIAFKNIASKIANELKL
Method: as §1

[19] = biological target: TYRO3 (Homo sapiens, UniProt Q06418)
Sequence of TYRO3 (Q06418 whole entry): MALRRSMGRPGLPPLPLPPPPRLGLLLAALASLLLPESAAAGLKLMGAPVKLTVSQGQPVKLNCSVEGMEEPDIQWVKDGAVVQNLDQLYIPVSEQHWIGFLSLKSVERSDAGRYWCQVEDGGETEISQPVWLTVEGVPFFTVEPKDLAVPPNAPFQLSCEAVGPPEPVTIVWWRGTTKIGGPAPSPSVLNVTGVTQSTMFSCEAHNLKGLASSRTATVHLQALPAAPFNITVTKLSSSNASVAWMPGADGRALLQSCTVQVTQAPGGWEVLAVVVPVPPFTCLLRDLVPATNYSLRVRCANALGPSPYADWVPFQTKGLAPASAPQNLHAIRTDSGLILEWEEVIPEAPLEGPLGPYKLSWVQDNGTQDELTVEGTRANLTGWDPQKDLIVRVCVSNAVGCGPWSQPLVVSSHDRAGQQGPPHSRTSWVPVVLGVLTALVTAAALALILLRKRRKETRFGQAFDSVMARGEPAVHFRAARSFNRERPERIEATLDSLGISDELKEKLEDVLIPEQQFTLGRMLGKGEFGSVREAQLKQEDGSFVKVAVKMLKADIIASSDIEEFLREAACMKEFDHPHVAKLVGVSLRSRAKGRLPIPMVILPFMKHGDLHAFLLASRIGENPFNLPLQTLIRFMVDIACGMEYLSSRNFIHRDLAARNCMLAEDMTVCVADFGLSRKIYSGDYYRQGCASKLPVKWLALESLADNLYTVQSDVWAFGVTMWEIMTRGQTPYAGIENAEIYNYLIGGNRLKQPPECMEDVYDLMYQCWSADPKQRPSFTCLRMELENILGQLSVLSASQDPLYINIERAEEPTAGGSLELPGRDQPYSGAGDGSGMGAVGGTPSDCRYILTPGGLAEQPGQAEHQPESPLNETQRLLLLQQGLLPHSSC
Method: as §1

[20] = biological target: T4, MST2 (Homo sapiens, UniProt Q13188)
T4 construct: gene STK3
Method: as §1

[21] = biological target: FLT3(D835H) (Homo sapiens, UniProt P36888, D835H)
Method: as §1

- remaining binding at 100 µM [1]: 89%
- remaining binding at 100 µM [2]: 92%
- remaining binding at 100 µM [3]: 86%
- remaining binding at 100 µM [4]: 95%
- remaining binding at 100 µM [5]: 51%
- remaining binding at 100 µM [6]: 92%
- remaining binding at 100 µM [7]: 83%
- remaining binding at 100 µM [8]: 88%
- remaining binding at 100 µM [9]: 78%
- remaining binding at 100 µM [10]: 74%
- remaining binding at 100 µM [11]: 63%
- remaining binding at 100 µM [12]: 78%
- remaining binding at 100 µM [13]: 94%
- remaining binding at 100 µM [14]: 87%
- remaining binding at 100 µM [15]: 84%
- remaining binding at 100 µM [16]: 84%
- remaining binding at 100 µM [17]: 71%
- remaining binding at 100 µM [18]: 68%
- remaining binding at 100 µM [19]: 87%
- remaining binding at 100 µM [20]: 65%
- remaining binding at 100 µM [21]: 92%
SMILES: C=C(C)[C@H]1CC=C(C)C(=O)C1 [S-carvone]
